Reference: PubChem BioAssay (NCI)
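Results reflect a 48-hour exposure of cells in 96-well plates to compound at five concentrations. TGI: concentration producing complete growth inhibition.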

What was measured:
Test in all cases: NCI anticancer screen, dose series, 48 h
[1] = system: 786-0 renal
[2] = system: A498 renal
[3] = system: ACHN renal
[4] = system: BT-549 breast
[5] = system: CAKI-1 renal
[6] = system: COLO 205 colon
[7] = system: DU-145 prostate
[8] = system: EKVX NSCLC
[9] = system: HCC-2998 colon
[10] = system: HCT-116 colon
[11] = system: HCT-15 colon
[12] = system: HOP-62 NSCLC
[13] = system: HOP-92 NSCLC
[14] = system: HS 578T breast
[15] = system: HT29 colon
[16] = system: IGROV1 ovarian
[17] = system: K-562 leukemia
[18] = system: KM12 colon
[19] = system: LOX IMVI melanoma
[20] = system: M14 melanoma
[21] = system: MALME-3M melanoma
[22] = system: MCF7 breast
[23] = system: MDA-MB-231 breast
[24] = system: MDA-MB-435
[25] = system: MDA-N
[26] = system: MOLT-4 leukemia
[27] = system: NCI-H226 lung
[28] = system: NCI-H23 lung
[29] = system: NCI-H460 lung
[30] = system: NCI-H522 lung
[31] = system: NCI/ADR-RES ovarian
[32] = system: OVCAR-3 ovarian
[33] = system: OVCAR-4 ovarian
[34] = system: OVCAR-5 ovarian
[35] = system: OVCAR-8 ovarian
[36] = system: PC-3 prostate
[37] = system: RPMI-8226 leukemia
[38] = system: RXF 393 renal
[39] = system: SF-268 CNS
[40] = system: SF-539 CNS
[41] = system: SK-MEL-28 melanoma
[42] = system: SK-MEL-5 melanoma
[43] = system: SK-OV-3 ovarian
[44] = system: SN12C renal
[45] = system: SNB-19 CNS
[46] = system: SNB-75 CNS
[47] = system: SR leukemia
[48] = system: SW-620 colon
[49] = system: T-47D breast
[50] = system: TK-10 renal
[51] = system: U251 CNS
[52] = system: UACC-257 melanoma
[53] = system: UACC-62 melanoma
[54] = system: UO-31 renal
[55] = system: A549 NSCLC
[56] = system: CCRF-CEM leukemia
[57] = system: HL-60(TB) leukemia
[58] = system: SF-295 CNS
[59] = system: SK-MEL-2 melanoma

## O=C1C=C(c2ccccc2)O/C1=C\C(=O)c1ccc(Cl)cc1
[1]
  TGI: 28.8 µM
[2]
  TGI: > 100 µM
[3]
  TGI: 29.7 µM
[4]
  TGI: 25.3 µM
[5]
  TGI: 32.5 µM
[6]
  TGI: 30.8 µM
[7]
  TGI: > 100 µM
[8]
  TGI: > 100 µM
[9]
  TGI: 87.5 µM
[10]
  TGI: 31.2 µM
[11]
  TGI: 35.1 µM
[12]
  TGI: > 100 µM
[13]
  TGI: 50 µM
[14]
  TGI: 61.5 µM
[15]
  TGI: 13.1 µM
[16]
  TGI: 35.8 µM
[17]
  TGI: 73 µM
[18]
  TGI: 80.5 µM
[19]
  TGI: 30.1 µM
[20]
  TGI: 41.5 µM
[21]
  TGI: 29.4 µM
[22]
  TGI: 34.9 µM
[23]
  TGI: 32.7 µM
[24]
  TGI: 29.8 µM
[25]
  TGI: 38.7 µM
[26]
  TGI: > 100 µM
[27]
  TGI: 44.5 µM
[28]
  TGI: 65.8 µM
[29]
  TGI: > 100 µM
[30]
  TGI: 44.2 µM
[31]
  TGI: 52.4 µM
[32]
  TGI: 47.1 µM
[33]
  TGI: 58.2 µM
[34]
  TGI: 88 µM
[35]
  TGI: 83.4 µM
[36]
  TGI: 30.3 µM
[37]
  TGI: > 100 µM
[38]
  TGI: 32.6 µM
[39]
  TGI: 52.2 µM
[40]
  TGI: > 100 µM
[41]
  TGI: 38.5 µM
[42]
  TGI: 91.9 µM
[43]
  TGI: > 100 µM
[44]
  TGI: 11.5 µM
[45]
  TGI: > 100 µM
[46]
  TGI: 18.2 µM
[47]
  TGI: > 100 µM
[48]
  TGI: 10.1 µM
[49]
  TGI: 74.1 µM
[50]
  TGI: 35 µM
[51]
  TGI: 29.9 µM
[52]
  TGI: 37.1 µM
[53]
  TGI: 30.4 µM
[54]
  TGI: 35.8 µM

## COc1ccc2c(c1)CCCc1c-2nc2ccccc2c1N
[1]
  TGI: 18.5 µM
[2]
  TGI: 20.8 µM
[55]
  TGI: 25.7 µM
[3]
  TGI: 29 µM
[4]
  TGI: 31 µM
[5]
  TGI: 26.8 µM
[56]
  TGI: 32 µM
[6]
  TGI: 3.22 µM
[7]
  TGI: 26.1 µM
[8]
  TGI: 22.2 µM
[9]
  TGI: 3.34 µM
[10]
  TGI: 18.6 µM
[11]
  TGI: 26.5 µM
[57]
  TGI: 32.4 µM
[12]
  TGI: 12.9 µM
[13]
  TGI: 18.9 µM
[14]
  TGI: 45.3 µM
[15]
  TGI: 13.7 µM
[16]
  TGI: 28.7 µM
[17]
  TGI: 58.5 µM
[18]
  TGI: 30.9 µM
[19]
  TGI: 20.9 µM
[20]
  TGI: 21.1 µM
[21]
  TGI: 27.1 µM
[22]
  TGI: 24.9 µM
[23]
  TGI: 19 µM
[24]
  TGI: 24.8 µM
[25]
  TGI: 21.9 µM
[26]
  TGI: 66.5 µM
[27]
  TGI: 28.4 µM
[28]
  TGI: 31.6 µM
[29]
  TGI: 16.9 µM
[30]
  TGI: 28 µM
[31]
  TGI: 33.6 µM
[32]
  TGI: 27.5 µM
[33]
  TGI: 27.3 µM
[34]
  TGI: 23.9 µM
[35]
  TGI: 26.8 µM
[36]
  TGI: 23.4 µM
[37]
  TGI: 27.3 µM
[38]
  TGI: 18.7 µM
[39]
  TGI: 29.2 µM
[58]
  TGI: 23.1 µM
[40]
  TGI: 24.8 µM
[59]
  TGI: 29.1 µM
[41]
  TGI: 25.5 µM
[42]
  TGI: 15.1 µM
[43]
  TGI: 24.2 µM
[44]
  TGI: 17.9 µM
[45]
  TGI: 31.8 µM
[46]
  TGI: 22.6 µM
[47]
  TGI: 6.32 µM
[48]
  TGI: 29 µM
[49]
  TGI: 31.3 µM
[50]
  TGI: 23.2 µM
[51]
  TGI: 25.2 µM
[52]
  TGI: 9.56 µM
[53]
  TGI: 25.4 µM
[54]
  TGI: 18.5 µM
